Measurements: patent US20170355705A1 (GlaxoSmithKline Intellectual Property (No.2) Limited, priority 2014, published 2017)

Molecular target: T1, SIRT1 (Homo sapiens, UniProt Q96EB6)
T1 sequence (Q96EB6 1-747): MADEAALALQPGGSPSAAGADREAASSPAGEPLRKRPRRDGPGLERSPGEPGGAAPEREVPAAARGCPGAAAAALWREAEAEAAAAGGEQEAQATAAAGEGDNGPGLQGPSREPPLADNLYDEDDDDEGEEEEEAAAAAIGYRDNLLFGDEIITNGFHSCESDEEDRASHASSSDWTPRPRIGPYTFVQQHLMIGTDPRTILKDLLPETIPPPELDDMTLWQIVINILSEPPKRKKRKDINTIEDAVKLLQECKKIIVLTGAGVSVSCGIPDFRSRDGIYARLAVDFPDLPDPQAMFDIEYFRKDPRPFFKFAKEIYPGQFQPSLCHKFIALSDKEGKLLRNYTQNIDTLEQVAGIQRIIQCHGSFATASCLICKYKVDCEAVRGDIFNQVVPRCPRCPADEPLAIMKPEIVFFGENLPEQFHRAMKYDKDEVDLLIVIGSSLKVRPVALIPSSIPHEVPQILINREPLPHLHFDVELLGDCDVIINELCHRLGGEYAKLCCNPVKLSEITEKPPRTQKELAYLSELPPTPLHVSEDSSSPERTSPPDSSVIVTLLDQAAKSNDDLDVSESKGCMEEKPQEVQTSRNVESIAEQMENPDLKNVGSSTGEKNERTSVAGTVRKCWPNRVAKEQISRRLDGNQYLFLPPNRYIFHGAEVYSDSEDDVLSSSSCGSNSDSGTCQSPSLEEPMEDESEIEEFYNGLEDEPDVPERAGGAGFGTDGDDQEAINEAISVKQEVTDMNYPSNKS
Assay: Trp mass spectrometry assay of SIRT1 activity (EC1.5, percent maximum activation)
Format: biochemical
Details: Trp mass spectrometry assay; 0.5 μM peptide substrate, 120 μM βNAD+, 10 nM SIRT1, 25 minutes at 25° C.
Outline: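 MS readout: O-acetyl-ADP-ribose (or deacetylated peptide) formed by His-tagged SIRT1 (BL21(DE3)-expressed) on 5TMR-Trp p53-based peptide, 25 min, formic acid stop. EC1.5 = concentration raising activity 50% over no-compound control; % max activation vs control = 100%.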

SMILES | TRP Activity (EC1.5, concentration of test compound that results in 150% activation of SIRT1) | TRP MAX RESP (percent maximum fold activation)
Cc1cc(-c2ccc3c(n2)N(C(=O)Nc2nccc(-c4cn(C)nc4C)n2)[C@H]2CCN3C2)ccn1 [Example 358, (4S)-N-(4-(1,3-dimethyl-1H-pyrazol-4-yl)pyrimidin-2-yl)-7-(2-methylpyridin-4-yl)-3,4-dihydro-1,4-methanopyrido[2,3-b][1,4]diazepine-5(2H)-carboxamide] | B (EC1.5 1-25 μM) | A (Fold activation ≧150%)
O=C(Nc1ncnc2cccc(F)c12)N1c2nc(-c3cccc(C(F)(F)F)c3)ccc2N2CC[C@H]1C2 [Example 361] |  | A (Fold activation ≧150%)
Cc1cc(-c2ccc3c(n2)N(C(=O)Nc2cc(-c4c(C)nn(C)c4C)ccn2)[C@H]2CCN3C2)ccn1 [Example 365] |  | A (Fold activation ≧150%)
Cc1cc(-c2ccc3c(n2)N(C(=O)Nc2cc(-c4cnn(CC(F)(F)F)c4)ccn2)[C@H]2CCN3C2)ccn1 [Example 366] |  | A (Fold activation ≧150%)
Cc1cc(-c2ccc3c(n2)N(C(=O)Nc2cc(N4CCCC4)ccn2)[C@H]2CCN3C2)ccn1 [Example 367] |  | A (Fold activation ≧150%)
O=C(NCCO)N1c2nc(-c3cccc(C(F)(F)F)c3)ccc2N2CC[C@H]1C2 [Example 378, (4S)-N-(2-hydroxyethyl)-7-(3-(trifluoromethyl)phenyl)-3,4-dihydro-1,4-methanopyrido[2,3-b][1,4]diazepine-5(2H)-carboxamide] | B (EC1.5 1-25 μM) | A (Fold activation ≧150%)
NC(=O)N1c2nc(-c3cccc(C(F)(F)F)c3)ccc2N2CC[C@H]1C2 [Example 379, (4S)-7-(3-(trifluoromethyl)phenyl)-3,4-dihydro-1,4-methanopyrido[2,3-b][1,4]diazepine-5(2H)-carboxamide] | C (EC1.5>25 μM) | B (Fold Activation <150%)
